Key:
E. tenella lectin = test: Hemagglutination inhibition assay, lectin of E. tenella sporozoite lysate (rabbit erythrocytes); format: biochemical, Eimeria tenella; conditions: minimum concentration inhibiting 4 hemagglutination units of lectin; 2% rabbit erythrocytes, room temperature, 60 minutes
Excerpt: (§1) The lectin activity is preferably determined by a hemagglutination assay of rabbit erythrocytes. It is desirably performed in "U" well microtiter plates using lysates prepared from the parasites of interest. The sporozoites of the parasite of interest are washed three times in phosphate buffered saline (PBS), and adjusted to a concentration of 1×10^7 /ml. They are lysed by sonication in "Branson" sonicator; cleared of particulate material by filtration; and assayed for lectin activity using a conventionally known hemagglutination assay. In this assay, 2% rabbit erythrocytes in PBS are added to serial doubling dilutions of the prepared test lysate in PBS containing 2 mg/ml of bovine serum albumin (BSA) and incubated at 23° C. (i.e., room temperature) for 1 hour. Lectin titer is defined as the reciprocal of the highest agglutinating dilution as determined by direct observation, which is defined as one agglutinating unit.
(§2) Sugar specificity and characterization is determined by a standard hemagglutination inhibition assay. 2% rabbit erythrocytes are added to serial doubling dilutions of the sugar-comprising test compound in PBS containing 2 mg/ml BSA and 4 hemagglutination units of lectins; followed by incubation at room temperature for 60 minutes. The minimum inhibitory concentration of the test compound is defined as the minimum concentration which is required for inhibiting 4 hemagglutination units of lectins. The following represent examples of suitable test compounds: (1) glycoproteins such as fetuine, bovine submaxillary mucin, hog gastric mucin, and -1- acid glycoprotein; (2) monosaccharides such as arabinose, fucose, glucose, galactose, mannose, N-acetylglucosamine, and N-acetylgalactosamine and their derivatives; and (3) oligosaccharides including chitobiose and chitotetrose.

E. acervulina lectin = test: Hemagglutination inhibition assay, lectin of E. acervulina sporozoite lysate (rabbit erythrocytes); format: biochemical, Eimeria acervulina; conditions: minimum concentration inhibiting 4 hemagglutination units of lectin; 2% rabbit erythrocytes, room temperature, 60 minutes
Excerpt: as §1, §2

E. tenella = test: Inhibition of E. tenella development in cell culture (3H uracil uptake, Schmatz et al.); format: cell-based, Eimeria tenella; conditions: for Scintillation Counts (24 hr), Trial 1 / Scintillation Counts (24 hr), Trial 2: 96 hours development, mean of eight cultures
Experimental: A series of experimental assays were performed to measure the in vitro inhibition of Coccidia infections by compositions comprising at least one sugar. The inhibition assay is one developed by Schmatz et al. [J. Protozology 33:109-114 (1986)] in which inhibition of sporozoite development is correlated with a decrease in ^3 H uracil uptake by the host cells.
Sporozoites are excysted aseptically from sterile coccidis oocysts, cleaned of debris by passage through a cellulose or glass wool column, counted, and diluted to a concentration of approximately 2.5×10^5 sporozoites per ml.
(§3) The sporozoites are then pretreated for one hour in cell culture nutrient (Waymouth's MAB 87/3, without serum) containing various concentration of inhibiting sugars, such as 0.1, 1.0, and 10.0 mg/ml fetuine, before being inoculated onto 24-48 hour primary cultures of embryonic chick kidney cells prepared in 24 or 96 well plates. Treatment with the inhibiting sugar, such as fetuine, is continuous at the tested concentration during the incubation period, allowing the parasite development to proceed for 48 or 96 hours. Nutrient is changed every 48 hours. Because parasites developing in cell culture, but not the host cells, take up ^3 H uracil, add 2 u Ci to each well in a 96 well plate 18 to 24 hours beore counting by liquid scintillation. Nutrient is removed from the parasitized cell cultures which are then treated with PBS solution, pH 7.6-7.8, containing 0.5% trypsin and 0.022% EDTA to detach the cells from the culture vessel, and harvested with a PHD Cell Harvester (Cambridge Instrument) onto glass fiber filter discs. Individual discs are placed into scintillation vials with 3.5 ml Toluene (plus 5.262 grams per 4 liters of PPO [2,5-diphenyloxazole]) and samples are then counted in a Beckman scintillation counter.

E. maxima lectin = test: Hemagglutination inhibition assay, lectin of E. maxima sporozoite lysate (rabbit erythrocytes); format: biochemical, Eimeria maxima; conditions: minimum concentration inhibiting 4 hemagglutination units of lectin; 2% rabbit erythrocytes, room temperature, 60 minutes
Excerpt: as §1
Sugar specificity and characterization is determined by a standard hemagglutination inhibition assay. 2% rabbit erythrocytes are added to serial doubling dilutions of the sugar-comprising test compound in PBS containing 2 mg/ml BSA and 4 hemagglutination units of lectins; followed by incubation at room temperature for 60 minutes. […]

[1] = tested on: embryonic chick kidney cells; test: 3H uracil counts of host cells with fetuin, no parasite; format: cell-based; conditions: Host Cells + 15 mg/ml Fetuin, mean of eight cultures
Experimental: as §3

[2] = Host Cells + Parasite + 5 mg/ml Fetuin
[3] = Host Cells + Parasite + 10 mg/ml Fetuin
[4] = Host Cells + Parasite + 15 mg/ml Fetuin

Row | Molecule | Lowest Concentration that Inhibited Lectin Agglutination, E. tenella (E. tenella lectin) [mg/mL] | Lowest Concentration that Inhibited Lectin Agglutination, E. acervulina (E. acervulina lectin) [mg/mL] | further results
1 | C[C@@H]1OC(O)[C@@H](O)[C@H](O)[C@@H]1O (single isomer, unassigned) [L(-)-Fucose] | 1.25 |  | 
2 | COC1O[C@H](CO)[C@@H](O)[C@H](O)[C@H]1O (stereo partly drawn) [1-o-CH3 -D-Glucoside] | 4.1 |  | 
3 | O=C[C@@H](O)[C@H](O)[C@H](O)CO [Arabinose] |  | 25.0 | 
4 | CC(=O)N[C@H]1[C@H](O[C@H]2[C@H](O)[C@@H](NC(C)=O)C(O)O[C@@H]2CO)O[C@H](CO)[C@@H](O[C@@H]2O[C@H](CO)[C@@H](O[C@@H]3O[C@H](CO)[C@@H](O)[C@H](O)[C@H]3NC(C)=O)[C@H](O)[C@H]2NC(C)=O)[C@@H]1O (stereo partly drawn) [Chitotetrose] | 0.03 |  | 
5 | O=[N+]([O-])c1ccc(OC2O[C@H](CO)[C@@H](O)[C@H](O)[C@H]2O)cc1 (stereo partly drawn) [P-Nitro-o-D-Glucoside] | 12.5 |  | 
6 | Acid Glycoprotein | 1.25 | 0.5 | 
7 | Bovine Submaxillary Mucin [Bovine Submaxillary Mucin (BSM)] | 0.083 | 0.03 | 
8 | Chitobiose | 1.25 |  | 
9 | Hog Gastric Mucin | 0.125 | 0.5 | 
10 | Fetuin (protein, UniProt P12763 19-359, looked up, glycoprotein) Alpha-2-HS-glycoprotein: IPLDPVAGYKEPACDDPDTEQAALAAVDYINKHLPRGYKHTLNQIDSVKVWPRRPTGEVYDIEIDTLETTCHVLDPTPLANCSVRQQTQHAVEGDCDIHVLKQDGQFSVLFTKCDSSPDSAEDVRKLCPDCPLLAPLNDSRVVHAVEVALATFNAESNGSYLQLVEISRAQFVPLPVSVSVEFAVAATDCIAKEVVDPTKCNLLAEKQYGFCKGSVIQKALGGEDVRVTCTLFQTQPVIPQPQPDGAEAEAPSAVPDAAGPTPSAAGPPVASVVVGPSVVAVPLPLHRAHYDLRHTFSGVASVESSSGEAFHVGKTPIVGQPSIPGGPVRLCPGRIRYFKI | 0.078 | 0.13 | Scintillation Counts (24 hr), Trial 1 (E. tenella; [2]): 8,135.0; Scintillation Counts (24 hr), Trial 2 (E. tenella; [2]): 1,394.7; Scintillation Counts (24 hr), Trial 1 (E. tenella; [3]): 8,625.6; Scintillation Counts (24 hr), Trial 2 (E. tenella; [3]): 1,556.4; Scintillation Counts (24 hr), Trial 1 (E. tenella; [4]): 4,328.3; Scintillation Counts (24 hr), Trial 2 (E. tenella; [4]): 796.1; 3H uracil uptake, inhibition of E. tennella development (in words) (E. tenella; summary of Table E2): substantial reductions; Lowest Concentration that Inhibited Lectin Agglutination, E. maxima (E. maxima lectin): 0.4 mg/mL; Scintillation Counts (24 hr), Trial 1 [1]: 7,826.4; Scintillation Counts (24 hr), Trial 2 [1]: 1,942.7

Reference: patent US5141925A, “Vivo methods for treating coccidiosis” (Trustees of Tufts College, priority 1990, dated 1992)
